Source: patent US20060166287A1, “Method for Identifying compounds for suppressing metastasizing tumor cells” (priority 2002, published 2006)

Test system: c-Met
Assay: c-Met activation (ERK phosphorylation) by pro-HGF versus active HGF in HT29 and BSp73Asv4-7Δ15 cell lines, Western blot
Assay type: cell-based
Settings: HT29 and BSp73Asv4-7Δ15 cells with competent CD44 isoforms, FIG. 5
From the text: HGF/SF is secreted as single-stranded precursor which is processed by serum proteinases (Shimomura, 1995) or plasminogen activators of the urokinase type (Naldini, 1995) into an active a form and β subunits. Investigations into whether CD44 is involved in the activation of HGF was employed HGF precursor which was purchased and isolated from Drosophila Schneider cells (S2) for the activation of c-Met (FIG. 5).
(B) Western blot analyses to investigate the cleavage of the precursors pro-HGF (HGFp; enriched from Drosophila Schneider cells (S2)) into the active form HGFa by means of CD44 in the HT29 and BSp73Asv4-7Δ15 cell lines. The pro form is unable, despite the presence of competent CD44 isoforms, to mediate ERK phosphorylation by c-Met activation. In contrast thereto, processed, active HGF is capable, with the assistance of competent CD44 isoforms, of c-Met activation.
(C) Western blot analysis to investigate the cleavage of the precursor pro-HGF (HGFp; commercial) into the active form HGFa by means of CD44 in the HT29 and BSp73Asv4-7Δ15 cell lines. The pro form is unable, despite the presence of competent CD44-isoforms, to mediate ERK phosphorylation by c-Met activation. In contrast thereto, processed, active HGF is capable, with the assistance of competent CD44 isoforms, of c-Met activation.

pro-HGF: single-stranded HGF/SF precursor, purchased or isolated from Drosophila Schneider cells (S2)
Ability to activate c-Met / mediate ERK phosphorylation: unable | Ability to activate c-Met / mediate ERK phosphorylation (listed as pro form of HGF): unable to activate c-Met
